Here are results for 8 compounds from ChEMBL document CHEMBL1129641 (J Med Chem, 1996).

SMILES strings stand for the structures. pKi: −log10 of the molar value.

For one test, the target named is T1, Beta-2 adrenergic receptor (Homo sapiens, UniProt P07550). Kind of test: Binding affinity for human Beta-2 adrenergic receptor expressed in CHO cells by radioligand competition binding assays using [125I]iodocyanopindolol (ICYP).
Settings: not given
Format: cell-based.
Target sequence in this assay (P07550 whole entry): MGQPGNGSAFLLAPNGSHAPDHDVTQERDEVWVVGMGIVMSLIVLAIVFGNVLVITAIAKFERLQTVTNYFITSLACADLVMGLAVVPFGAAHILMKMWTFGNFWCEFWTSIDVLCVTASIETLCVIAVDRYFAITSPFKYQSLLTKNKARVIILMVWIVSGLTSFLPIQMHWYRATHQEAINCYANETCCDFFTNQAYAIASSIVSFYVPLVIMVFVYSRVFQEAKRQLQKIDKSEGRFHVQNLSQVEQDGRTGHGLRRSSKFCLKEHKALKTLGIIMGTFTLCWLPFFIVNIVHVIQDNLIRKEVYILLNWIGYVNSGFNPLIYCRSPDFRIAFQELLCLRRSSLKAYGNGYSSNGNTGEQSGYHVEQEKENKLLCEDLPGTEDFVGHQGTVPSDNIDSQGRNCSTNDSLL
`Nc1ccc(CC2NCCc3cc(O)c(O)cc32)cc1I` (stereo not drawn) showed a pKi of 8.19.

In a further test the target is T2, Thromboxane A2 receptor (Homo sapiens, UniProt P21731).
T2 sequence (P21731 whole entry): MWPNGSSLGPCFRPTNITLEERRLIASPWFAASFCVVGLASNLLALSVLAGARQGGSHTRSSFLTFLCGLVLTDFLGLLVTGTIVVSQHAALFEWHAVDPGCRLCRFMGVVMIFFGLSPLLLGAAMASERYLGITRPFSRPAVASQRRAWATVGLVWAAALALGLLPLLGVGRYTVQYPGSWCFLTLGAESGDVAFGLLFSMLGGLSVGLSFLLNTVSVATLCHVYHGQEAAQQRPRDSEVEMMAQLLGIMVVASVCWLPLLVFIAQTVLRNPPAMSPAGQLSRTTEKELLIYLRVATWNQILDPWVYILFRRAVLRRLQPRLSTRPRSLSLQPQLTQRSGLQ
Nature of the test: Binding affinity for human Platelet Thromboxane A2 / Prostaglandin (TP), by radioligand competition binding assays using [3H]-SQ 29548 as radioligand.
Settings: not given
For `Nc1ccc(CC2NCCc3cc(O)c(O)cc32)cc1I` (stereo not drawn), the pKi was 6.00.

For a further test, the target named is T3, Thromboxane A2 receptor (Homo sapiens) (UniProt P21731).
T3 sequence (whole entry): T2 sequence (P21731 whole entry)
Kind of test: Binding affinity for human Platelet Thromboxane A2 / Prostaglandin (TP), by radioligand competition binding assays using [3H]-SQ 29548 as radioligand. PR = potency ratio relative to TMQ.
Settings: not given
Regarding `COc1c(I)cc(CC2NCCc3cc(O)c(O)cc32)cc1I` (stereo not drawn), the PR was 3.5.

Consider `COc1cc(C[C@@H]2NCCc3cc(O)c(O)cc32)cc(OC)c1OC`, for which the PR is 1.

On to `Oc1cc2c(cc1O)C(Cc1cc(I)c(I)c(I)c1)NCC2` (stereo not drawn), for which the PR amounted to 0.003.

For `Nc1c(I)cc(CC2NCCc3cc(O)c(O)cc32)cc1I` (stereo not drawn), the PR worked out at 0.87.

In the case of `CC(=O)Nc1ccc(CC2NCCc3cc(O)c(O)cc32)cc1I` (stereo not drawn), the PR was determined as 0.11.

Turning to `Oc1cc2c(cc1O)C(Cc1cc(C(F)(F)F)cc(C(F)(F)F)c1)NCC2` (stereo not drawn), the PR stood at 0.002.

With `Nc1ccc(CC2NCCc3cc(O)c(O)cc32)cc1I` (stereo not drawn), the PR came out at 0.16.

Regarding `O=C(Nc1ccc(CC2NCCc3cc(O)c(O)cc32)cc1I)c1ccccc1` (stereo not drawn), the PR was 0.03.

For the next test, the target named is T1, Beta-2 adrenergic receptor. As to conditions: CHO.
Target sequence in this assay (P07550 whole entry, looked up): as the sequence (P07550 whole entry) above
Description: Binding affinity for human beta-2 Adrenoceptor (AR) expressed in CHO cells by radioligand competition binding assays using [125I]-iodocyanopindolol (ICYP); PR = potency ratio relative to TMQ
For `COc1c(I)cc(CC2NCCc3cc(O)c(O)cc32)cc1I` (stereo not drawn), the PR is 21.

The compound `COc1cc(C[C@@H]2NCCc3cc(O)c(O)cc32)cc(OC)c1OC` showed a PR of 1.

Consider `Oc1cc2c(cc1O)C(Cc1cc(I)c(I)c(I)c1)NCC2` (stereo not drawn), for which the PR was 29.

As to `Nc1c(I)cc(CC2NCCc3cc(O)c(O)cc32)cc1I` (stereo not drawn), the PR was found to be 28.

`CC(=O)Nc1ccc(CC2NCCc3cc(O)c(O)cc32)cc1I` (stereo not drawn) had a PR of 5.6.

Compound `Oc1cc2c(cc1O)C(Cc1cc(C(F)(F)F)cc(C(F)(F)F)c1)NCC2` (stereo not drawn) yielded a PR of 0.01.

Consider `Nc1ccc(CC2NCCc3cc(O)c(O)cc32)cc1I` (stereo not drawn), for which the PR was 6.8.

`O=C(Nc1ccc(CC2NCCc3cc(O)c(O)cc32)cc1I)c1ccccc1` (stereo not drawn) showed a PR of 22.
